Results reported in ChEMBL document CHEMBL1201861, “Genomics of Drug Sensitity in Cancer screening data, Wellcome Trust Sanger Institute”.

Tests used:
Assay in all cases: cells
[1] = system: ATN-1; type: functional, cell-based, Homo sapiens; conditions: Homo sapiens, ATN-1;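 note: growth inhibition of human ATN-1 cells, read out with a cell viability assay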
Description: SANGER: Inhibition of human ATN-1 cell growth in a cell viability assay.

[2] = system: NCI-H526; type: functional, cell-based, Homo sapiens; conditions: Homo sapiens, NCI-H526;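 note: growth inhibition of the human NCI-H526 cell line, measured by a cell viability assay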
Description: SANGER: Inhibition of human NCI-H526 cell growth in a cell viability assay.

[3] = system: IST-MES1; type: functional, cell-based, Homo sapiens; conditions: Homo sapiens, IST-MES1;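 note: growth inhibition of IST-MES1 cells, measured with a cell viability assay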
Description: SANGER: Inhibition of human IST-MES1 cell growth in a cell viability assay.

[4] = system: HAL-01; type: functional, cell-based, Homo sapiens; conditions: Homo sapiens, HAL-01;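 note: growth inhibition of human HAL-01 cells, read out with a cell viability assay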
Description: SANGER: Inhibition of human HAL-01 cell growth in a cell viability assay.

[5] = system: DJM-1; type: functional, cell-based, Homo sapiens; conditions: Homo sapiens, DJM-1;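 note: growth inhibition of human DJM-1 cells, read out by a cell viability assay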
Description: SANGER: Inhibition of human DJM-1 cell growth in a cell viability assay.

[6] = system: KE-37; type: functional, cell-based, Homo sapiens; conditions: Homo sapiens, KE-37;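 note: growth inhibition of KE-37 cells, read out with a cell viability assay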
Description: SANGER: Inhibition of human KE-37 cell growth in a cell viability assay.

[7] = system: HCE-T; type: functional, cell-based, Homo sapiens; conditions: Homo sapiens, HCE-T;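 note: cell viability assay read-out, reporting inhibition of HCE-T cell growth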
Description: SANGER: Inhibition of human HCE-T cell growth in a cell viability assay.

[8] = system: SHP77; type: functional, cell-based, Homo sapiens, SHP-77; conditions: Homo sapiens, SHP77;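 note: growth inhibition of human SHP-77 cells measured by a cell viability assay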
Description: SANGER: Inhibition of human SHP-77 cell growth in a cell viability assay.

[9] = system: SW 962; type: functional, cell-based, Homo sapiens; conditions: Homo sapiens, SW 962;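 note: growth inhibition of human SW962 cells, read out by a cell viability assay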
Description: SANGER: Inhibition of human SW962 cell growth in a cell viability assay.

[10] = system: BE-13; type: functional, cell-based, Homo sapiens; conditions: Homo sapiens, BE-13;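 note: growth inhibition of human BE-13 cells, measured with a cell viability assay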
Description: SANGER: Inhibition of human BE-13 cell growth in a cell viability assay.

[11] = system: OVCAR-4; type: functional, cell-based, Homo sapiens; conditions: Homo sapiens, OVCAR-4;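 note: growth inhibition of human OVCAR-4 cells, measured with a cell viability assay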
Description: SANGER: Inhibition of human OVCAR-4 cell growth in a cell viability assay.

[12] = system: RXF 393; type: functional, cell-based, Homo sapiens; conditions: Homo sapiens, RXF 393;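 note: growth inhibition of human RXF 393 cells, read out with a cell viability assay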
Description: SANGER: Inhibition of human RXF393 cell growth in a cell viability assay.

[13] = system: SBC-1; type: functional, cell-based, Homo sapiens; conditions: Homo sapiens, SBC-1;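 note: cell viability assay measuring growth inhibition of the SBC-1 cell line, IC50 being the concentration that halves growth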
Description: SANGER: Inhibition of human SBC-1 cell growth in a cell viability assay.

[14] = system: NMC-G1; type: functional, cell-based, Homo sapiens; conditions: Homo sapiens, NMC-G1;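 note: growth inhibition of the NMC-G1 cell line, measured with a cell viability read-out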
Description: SANGER: Inhibition of human NMC-G1 cell growth in a cell viability assay.

[15] = system: EW-13; type: functional, cell-based, Homo sapiens; conditions: Homo sapiens, EW-13; read-out: IC50;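 note: growth inhibition of EW-13 cells, read out with a cell viability assay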
Description: SANGER: Inhibition of human EW-13 cell growth in a cell viability assay.

[16] = system: P30-OHK; type: functional, cell-based, Homo sapiens; conditions: Homo sapiens, P30-OHK;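 note: growth inhibition of the P30-OHK cell line, read out with a cell viability assay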
Description: SANGER: Inhibition of human P30-OHK cell growth in a cell viability assay.

[17] = system: LAMA-84; type: functional, cell-based, Homo sapiens; conditions: Homo sapiens, LAMA-84;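 note: growth inhibition of LAMA-84 cells, read out with a cell viability assay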
Description: SANGER: Inhibition of human LAMA-84 cell growth in a cell viability assay.

[18] = system: GCIY; type: functional, cell-based, Homo sapiens; conditions: Homo sapiens, GCIY;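 note: growth inhibition of the human GCIY cell line, read out by a cell viability assay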
Description: SANGER: Inhibition of human GCIY cell growth in a cell viability assay.

[19] = system: ML-2; type: functional, cell-based, Homo sapiens; conditions: Homo sapiens, ML-2;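 note: growth inhibition of ML-2 cells, measured with a cell viability readout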
Description: SANGER: Inhibition of human ML-2 cell growth in a cell viability assay.

[20] = system: CTB-1; type: functional, cell-based, Homo sapiens; conditions: Homo sapiens, CTB-1
Description: SANGER: Inhibition of human CTB-1 cell growth in a cell viability assay.

[21] = system: SK-NEP-1; type: functional, cell-based, Homo sapiens; conditions: Homo sapiens, SK-NEP-1;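 note: growth inhibition of human SK-NEP-1 cells, read out by a cell viability assay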
Description: SANGER: Inhibition of human SK-NEP-1 cell growth in a cell viability assay.

[22] = system: COLO-684; type: functional, cell-based, Homo sapiens; conditions: Homo sapiens, COLO-684
Description: SANGER: Inhibition of human COLO-684 cell growth in a cell viability assay.

[23] = system: SNU1; type: functional, cell-based, Homo sapiens; conditions: Homo sapiens, SNU1;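 note: growth inhibition of human NCI-SNU-1 cells, measured with a cell viability assay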
Description: SANGER: Inhibition of human NCI-SNU-1 cell growth in a cell viability assay.

[24] = system: RKO; type: functional, cell-based, Homo sapiens; conditions: Homo sapiens, RKO;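 note: growth inhibition of human RKO cells, read out with a cell viability assay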
Description: SANGER: Inhibition of human RKO cell growth in a cell viability assay.

[25] = system: SK-N-FI; type: functional, cell-based, Homo sapiens; conditions: Homo sapiens, SK-N-FI;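 note: cell viability assay measuring growth inhibition of human SK-N-FI cells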
Description: SANGER: Inhibition of human SK-N-FI cell growth in a cell viability assay.

[26] = system: NB10; type: functional, cell-based, Homo sapiens; conditions: Homo sapiens, NB10;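 note: growth inhibition of NB10 cells, read out by a cell viability assay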
Description: SANGER: Inhibition of human NB10 cell growth in a cell viability assay.

[27] = system: A4-Fuk; type: functional, cell-based, Homo sapiens; conditions: Homo sapiens, A4-Fuk;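 note: growth inhibition of A4-Fuk cells, read out by a cell viability assay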
Description: SANGER: Inhibition of human A4-Fuk cell growth in a cell viability assay.

[28] = system: EW-3; type: functional, cell-based, Homo sapiens; conditions: Homo sapiens, EW-3;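 note: cell viability assay read-out, IC50 reflects inhibition of growth of the EW-3 cells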
Description: SANGER: Inhibition of human EW-3 cell growth in a cell viability assay.

[29] = system: JAR; type: functional, cell-based, Homo sapiens; conditions: Homo sapiens, JAR;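 note: growth inhibition of human JAR cells determined with a cell viability assay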
Description: SANGER: Inhibition of human JAR cell growth in a cell viability assay.

[30] = system: MC116; type: functional, cell-based, Homo sapiens; conditions: Homo sapiens, MC116;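 note: growth inhibition of MC116 cells, read out with a cell viability assay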
Description: SANGER: Inhibition of human MC116 cell growth in a cell viability assay.

[31] = system: LU-139; type: functional, cell-based, Homo sapiens; conditions: Homo sapiens, LU-139
Description: SANGER: Inhibition of human LU-139 cell growth in a cell viability assay.

[32] = system: CAS-1; type: functional, cell-based, Homo sapiens; conditions: Homo sapiens, CAS-1;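 note: growth inhibition of CAS-1 cells, measured with a cell viability assay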
Description: SANGER: Inhibition of human CAS-1 cell growth in a cell viability assay.

[33] = system: NCI-H82; type: functional, cell-based, Homo sapiens; conditions: Homo sapiens, NCI-H82;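 note: growth inhibition of NCI-H82 cells, measured with a cell viability readout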
Description: SANGER: Inhibition of human NCI-H82 cell growth in a cell viability assay.

[34] = system: DSH1; type: functional, cell-based; conditions: Homo sapiens;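 note: growth inhibition of human DSH1 cells, measured with a cell viability readout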
Description: SANGER: Inhibition of human DSH1 cell growth in a cell viability assay.

[35] = system: GT3TKB; type: functional, cell-based, Homo sapiens; conditions: Homo sapiens, GT3TKB;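 note: growth inhibition of the cell line, read out with a cell viability assay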
Description: SANGER: Inhibition of human GT3TKB cell growth in a cell viability assay.

[36] = system: LB1047-RCC; type: functional, cell-based, Homo sapiens; conditions: Homo sapiens, LB1047-RCC;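 note: inhibition of cell growth, determined with a cell viability assay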
Description: SANGER: Inhibition of human LB1047-RCC cell growth in a cell viability assay.

[37] = system: TGBC1TKB; type: functional, cell-based, Homo sapiens; conditions: Homo sapiens, TGBC1TKB;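 note: growth inhibition of TGBC1TKB cells, read out by a cell viability assay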
Description: SANGER: Inhibition of human TGBC1TKB cell growth in a cell viability assay.

[38] = system: ES4; type: functional, cell-based, Homo sapiens; conditions: Homo sapiens, ES4;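 note: growth inhibition of human ES4 cells, read out by a cell viability assay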
Description: SANGER: Inhibition of human ES4 cell growth in a cell viability assay.

[39] = system: JVM-2; type: functional, cell-based, Homo sapiens; conditions: Homo sapiens, JVM-2;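 note: growth inhibition of JVM-2 cells determined by a cell viability assay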
Description: SANGER: Inhibition of human JVM-2 cell growth in a cell viability assay.

[40] = system: U-266; type: functional, cell-based, Homo sapiens; conditions: Homo sapiens, U-266
Description: SANGER: Inhibition of human U-266 cell growth in a cell viability assay.

[41] = system: KURAMOCHI; type: functional, cell-based, Homo sapiens; conditions: Homo sapiens, KURAMOCHI;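 note: growth inhibition of KURAMOCHI cells, read out with a cell viability assay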
Description: SANGER: Inhibition of human KURAMOCHI cell growth in a cell viability assay.

[42] = system: NCI-H446; type: functional, cell-based, Homo sapiens; conditions: Homo sapiens, NCI-H446;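 note: growth inhibition of NCI-H446 cells determined by a cell viability assay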
Description: SANGER: Inhibition of human NCI-H446 cell growth in a cell viability assay.

[43] = system: L-363; type: functional, cell-based, Homo sapiens; conditions: Homo sapiens, L-363
Description: SANGER: Inhibition of human L-363 cell growth in a cell viability assay.

[44] = system: 697; type: functional, cell-based, Homo sapiens; conditions: Homo sapiens
Description: SANGER: Inhibition of human 697 cell growth in a cell viability assay.

[45] = system: NCI-H747; type: functional, cell-based, Homo sapiens; conditions: Homo sapiens, NCI-H747;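 note: growth inhibition of human NCI-H747 cells, read out by a cell viability assay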
Description: SANGER: Inhibition of human NCI-H747 cell growth in a cell viability assay.

[46] = system: OS-RC-2; type: functional, cell-based, Homo sapiens; conditions: Homo sapiens, OS-RC-2;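 note: growth inhibition of human OS-RC-2 cells, measured by a cell viability assay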
Description: SANGER: Inhibition of human OS-RC-2 cell growth in a cell viability assay.

[47] = system: NOS-1; type: functional, cell-based, Homo sapiens; conditions: Homo sapiens, NOS-1;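 note: growth inhibition of the human NOS-1 cell line, read out with a cell viability assay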
Description: SANGER: Inhibition of human NOS-1 cell growth in a cell viability assay.

[48] = system: TK-10; type: functional, cell-based, Homo sapiens; conditions: Homo sapiens, TK-10;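 note: growth inhibition of TK-10 cells, read out in a cell viability assay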
Description: SANGER: Inhibition of human TK10 cell growth in a cell viability assay.

[49] = system: A3-KAW; type: functional, cell-based, Homo sapiens; conditions: Homo sapiens, A3-KAW;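 note: growth inhibition of human A3-KAW cells, read out with a cell viability assay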
Description: SANGER: Inhibition of human A3-KAW cell growth in a cell viability assay.

[50] = system: EW-1; type: functional, cell-based, Homo sapiens; conditions: Homo sapiens, EW-1;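 note: growth inhibition of the human EW-1 cell line, read out by a cell viability assay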
Description: SANGER: Inhibition of human EW-1 cell growth in a cell viability assay.

Work on `COc1ccc(N(C(=O)Oc2c(C)cccc2C)c2ccnc(Nc3ccc(N4CCN(C)CC4)cc3)n2)c(OC)c1` yielded an IC50 [1] greater than 5.12 µM, an IC50 [2] greater than 5.12 µM and an IC50 [3] of 0.357 µM. It also gave an IC50 [4] greater than 5.12 µM, an IC50 [5] greater than 5.12 µM and an IC50 [6] greater than 5.12 µM. For the same compound, the IC50 [7] was greater than 5.12 µM, the IC50 [8] was greater than 5.12 µM and the IC50 [9] was 1.34 µM. It also gave an IC50 [10] greater than 5.12 µM, an IC50 [11] greater than 5.12 µM and an IC50 [12] of 0.106 µM. The IC50 [13] was greater than 5.12 µM, the IC50 [14] was greater than 5.12 µM and the IC50 [15] was greater than 5.12 µM. It also gave an IC50 [16] greater than 5.12 µM, an IC50 [17] of less than 0.02 µM and an IC50 [18] of 1.23 µM. It also gave an IC50 [19] greater than 5.12 µM, an IC50 [20] greater than 5.12 µM and an IC50 [21] greater than 5.12 µM. It also gave an IC50 [22] greater than 5.12 µM, an IC50 [23] greater than 5.12 µM and an IC50 [24] greater than 5.12 µM. For the same compound, the IC50 [25] was greater than 5.12 µM, the IC50 [26] was greater than 5.12 µM and the IC50 [27] was greater than 5.12 µM. For the same compound, the IC50 [28] was greater than 5.12 µM, the IC50 [29] was greater than 5.12 µM and the IC50 [30] was 2.86 µM. For the same compound, the IC50 [31] was greater than 5.12 µM, the IC50 [32] was 4.4 µM and the IC50 [33] was greater than 5.12 µM. For the same compound, the IC50 [34] was greater than 5.12 µM, the IC50 [35] was greater than 5.12 µM and the IC50 [36] was 0.0759 µM. For the same compound, the IC50 [37] was greater than 5.12 µM, the IC50 [38] was greater than 5.12 µM and the IC50 [39] was greater than 5.12 µM. It also gave an IC50 [40] greater than 5.12 µM, an IC50 [41] of 2.24 µM and an IC50 [42] greater than 5.12 µM. It also gave an IC50 [43] greater than 5.12 µM, an IC50 [44] of 3.4 µM and an IC50 [45] greater than 5.12 µM. It also gave an IC50 [46] of 0.35 µM, an IC50 [47] of 0.95 µM and an IC50 [48] of 1.08 µM. For the same compound, the IC50 [49] was greater than 5.12 µM and the IC50 [50] was greater than 5.12 µM.
